Data set [1] has as its target T1, HCMV polymerase (Human cytomegalovirus, UniProt P08546).
T1 construct: made in house; host or cells: recombinant baculovirus-infected SF-9 cells
The experiment in a line: biochemical. As to conditions: modified SPA assay: compounds diluted in 100% DMSO, 4.5 mM DTT in polymerase buffer; read-out: polymerase IC50 (μM) HCMV. The procedure:
The HCMV polymerase assay is performed using a scintillation proximity assay (SPA) as described in several references, such as N. D. Cook, et al., Pharmaceutical Manufacturing International, pages 49-53 (1992); K. Takeuchi, Laboratory Practice, September issue (1992); U.S. Pat. No. 4,568,649 (1986); which are incorporated by reference herein. Reactions are performed in 96-well plates. The assay is conducted in 100 μl volume with 5.4 mM HEPE (pH 7.5), 11.7 mM KCl, 4.5 mM MgCl2, 0.36 mg/ml BSA, and 90 nM ^3H-dTTP. Assays are run with and without CHAPS, (3-[(3-cholamidopropyl)-dimethylammonio]-1-propane-sulfonate) at a final concentration of 2 mM. HCMV polymerase is diluted in enzyme dilution buffer containing 50% glycerol, 250 mM NaCl, 10 mM HEPES (pH 7.5), 100 μg/ml BSA, and 0.01% sodium azide. The HCMV polymerase, which is expressed in recombinant baculovirus-infected SF-9 cells and purified according to literature procedures, is added at 10% (or 10 μl) of the final reaction volume, i.e., 100 μl. Compounds are diluted in 50% DMSO and 10 μl are added to each well. Control wells contain an equivalent concentration of DMSO. Unless noted otherwise, reactions are initiated via the addition of 6 nM biotinylated poly(dA)-oligo(dT) template/primer to reaction mixtures containing the enzyme, substrate, and compounds of interest. Plates are incubated in a 25 C or 37 C H2O bath and terminated via the addition of 40 μl/reaction of 0.5 M EDTA (pH 8) per well. Reactions are terminated within the time-frame during which substrate incorporation is linear and varied depending upon the enzyme and conditions used, i.e., 30 min. for HCMV polymerase. Ten μl of streptavidin-SPA beads (20 mg/ml in PBS/10% glycerol) are added following termination of the reaction. Plates are incubated 10 min. at 37 ° C., then equilibrated to room temperature, and counted on a Packard Topcount. Linear regressions are performed and IC50's are calculated using computer software.
A modified version of the above HCMV polymerase assay is performed as described above, but with the following changes: Compounds are diluted in 100% DMSO until final dilution into assay buffer. In the previous assay, compounds are diluted in 50% DMSO. 4.5 mM dithiothreotol (DTT) is added to the polymerase buffer.

T1 sequence (P08546 whole entry): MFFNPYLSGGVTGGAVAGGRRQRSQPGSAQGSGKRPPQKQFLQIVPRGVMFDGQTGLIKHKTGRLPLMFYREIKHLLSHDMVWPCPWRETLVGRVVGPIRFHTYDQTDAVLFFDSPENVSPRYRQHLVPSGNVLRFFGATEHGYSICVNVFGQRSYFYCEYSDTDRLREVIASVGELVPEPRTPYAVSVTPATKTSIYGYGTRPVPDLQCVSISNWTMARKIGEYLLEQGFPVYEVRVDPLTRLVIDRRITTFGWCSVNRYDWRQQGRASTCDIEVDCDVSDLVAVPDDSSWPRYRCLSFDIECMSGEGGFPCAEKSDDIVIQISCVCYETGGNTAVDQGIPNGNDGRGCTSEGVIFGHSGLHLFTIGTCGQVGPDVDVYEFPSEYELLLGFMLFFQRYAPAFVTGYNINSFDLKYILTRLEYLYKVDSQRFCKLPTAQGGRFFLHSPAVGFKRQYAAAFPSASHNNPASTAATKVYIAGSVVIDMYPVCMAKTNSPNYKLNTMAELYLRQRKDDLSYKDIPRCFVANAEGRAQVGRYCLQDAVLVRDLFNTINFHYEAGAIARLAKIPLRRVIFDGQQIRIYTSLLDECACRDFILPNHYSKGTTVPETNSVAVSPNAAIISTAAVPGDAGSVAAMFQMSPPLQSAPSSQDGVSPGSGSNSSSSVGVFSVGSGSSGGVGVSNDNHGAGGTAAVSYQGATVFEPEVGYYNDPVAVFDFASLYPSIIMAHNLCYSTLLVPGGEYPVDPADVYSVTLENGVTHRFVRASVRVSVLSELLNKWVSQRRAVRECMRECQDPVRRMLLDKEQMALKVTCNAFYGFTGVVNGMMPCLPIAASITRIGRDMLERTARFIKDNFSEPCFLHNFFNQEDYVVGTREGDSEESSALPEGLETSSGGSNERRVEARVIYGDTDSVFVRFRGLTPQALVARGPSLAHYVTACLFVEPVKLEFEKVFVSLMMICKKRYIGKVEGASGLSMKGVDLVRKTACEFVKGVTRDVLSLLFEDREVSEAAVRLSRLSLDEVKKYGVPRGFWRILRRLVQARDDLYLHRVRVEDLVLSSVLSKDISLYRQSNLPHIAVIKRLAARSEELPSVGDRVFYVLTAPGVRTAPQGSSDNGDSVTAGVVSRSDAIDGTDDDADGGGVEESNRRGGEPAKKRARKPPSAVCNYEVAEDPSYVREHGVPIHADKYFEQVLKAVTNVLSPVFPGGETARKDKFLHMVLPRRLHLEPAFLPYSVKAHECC

Take `CN(Cc1cc2c(=O)c(C(=O)NCc3ccc(Cl)cc3)cn(C)c2s1)CC(O)c1ccccc1` (centres unmarked) [Example 40, N-(4-Chlorobenzyl)-2-(((2-hydroxy-2-phenylethyl)(methyl)-amino)methyl)-7-methyl-4-oxo-4,7-dihydrothieno[2,3-b]pyridine-5-carboxamide]: the melting point (commonly the temperature of the solid-liquid transition) lay in the range of 184 to 187 °C. Besides, in data set [1], the IC50 (commonly the concentration that gives 50% inhibition) is less than 0.31 µM.

`O=C(NCc1ccc(Cl)cc1)c1cnc2sc(Br)cc2c1O` [Example 4, 2-Bromo-N-(4-chlorobenzyl)-4-hydroxythieno[2,3-b]pyridine-5-carboxamide] yielded a melting point of 234 to 236 °C. Further, in data set [1], the IC50 came to 10.8 µM.

`O=C(NCc1ccc(Cl)cc1)c1cn(Cc2cccnc2)c2sc(CN3CCOCC3)cc2c1=O` [Example 54, N-(4-Chlorobenzyl)-2-(4-morpholinylmethyl)-4-oxo-7-(3-pyridinylmethyl)-4,7-dihydrothieno[2,3-b]pyridine-5-carboxamide] registered a melting point of 214 to 215 °C. Further, in data set [1], the IC50 is 3.2 µM.

Compound `Cn1cc(C(=O)NCc2ccc(Cl)cc2)c(=O)c2cc(I)sc21` [Example 23, N-(4-Chlorobenzyl)-2-iodo-7-methyl-4-oxo-4,7-dihydrothieno[2,3-b]pyridine-5-carboxamide] displayed a melting point of 236 to 237 °C. In data set [1], the IC50 was found to be 2.9 µM.

Take `Cn1cc(C(=O)NCc2ccc(Br)cc2)c(=O)c2cc(CN3CCOCC3)sc21` [Example 46, N-(4-Bromobenzyl)-7-methyl-2-(4-morpholinylmethyl)-4-oxo-4,7-dihydrothieno[2,3-b]pyridine-5-carboxamide]: the melting point is 245 to 246 °C. The concentration for half-maximal inhibition (IC50) in data set [1] stood at 3.8 µM.

Compound `O=C(NCc1ccc(Cl)cc1)c1cnc2sc(CO)cc2c1O` [Example 34, N-(4-Chlorobenzyl)-4-hydroxy-2-(hydroxymethyl)thieno[2,3-b]pyridine-5-carboxamide] yielded a melting point of 205 to 210 °C. Further, the IC50 in data set [1] is greater than 20 µM.

`O=C(NCc1ccc(Cl)cc1)c1cn(CCCc2ccccc2)c2sc(CN3CCOCC3)cc2c1=O` [Example 51, N-(4-Chlorobenzyl)-2-(4-morpholinylmethyl)-4-oxo-7-(3-phenylpropyl)-4,7-dihydrothieno[2,3-b]pyridine-5-carboxamide] registered a melting point of 169 to 171 °C. Further, in data set [1], the IC50 turned out to be 1.2 µM.

For `O=C(NCc1ccc(Cl)cc1)c1cnc2sc(C(=O)N3CCOCC3)cc2c1O` [Example 47, N-(4-Chlorobenzyl)-4-hydroxy-2-(4-morpholinyl-carbonyl)-thieno[2,3-b]pyridine-5-carboxamide], the melting point lay in the range of 217 to 219 °C. Also, the IC50 in data set [1] was greater than 20 µM.

Take `CC(C)n1cc(C(=O)NCc2ccc(Cl)cc2)c(=O)c2cc(I)sc21` [Example 26, N-(4-Chlorobenzyl)-2-iodo-7-isopropyl-4-oxo-7-3dihydrothiedion[2,3-b]pyridine-5-carboxamide]: the melting point is 173 to 180 °C. In data set [1], the IC50 is 14.2 µM.

The compound `CCn1cc(C(=O)NCc2ccc(Cl)cc2)c(=O)c2cc(CN3CCOCC3)sc21` [Example 42, N-(4-Chlorobenzyl)-7-ethyl-2-(4-morpholinylmethyl)-4-oxo-4,7-dihydrothieno[2,3-b]pyridine-5-carboxamide] returned a melting point of 194 to 196 °C. For the same compound, the IC50 in data set [1] came out at 1.9 µM.

As to `CCn1cc(C(=O)NCc2ccc(Cl)cc2)c(=O)c2cc(C#CCOC(=O)c3cccc(CN4CCOCC4)c3)sc21` [Example 32, 3-(5-{[(4-Chlorobenzyl)amino]carbonyl}-7-ethyl-4-oxo-4,7-dihydrothieno[2,3-b]pyridin-2-yl)-2-propynyl 3-(4-Morpholinylmethyl)benzoate], the melting point was in the range of 147 to 150 °C. Moreover, in data set [1], the IC50 was greater than 50 µM.

`COC(=O)C(CC#Cc1cc2c(O)c(C(=O)NCc3ccc(Cl)cc3)cnc2s1)C(=O)OC` [Example 10, Dimethyl 2-[3-(5-{[(4-Chlorobenzyl)amino]carbonyl}-4-hydroxythieno[2,3-b]pyridin-2-yl)-2-propynyl]malonate] gave a melting point of 197 to 198 °C. The concentration for half-maximal inhibition (IC50) in data set [1] was found to be 34.3 µM.

The compound `CC(C)n1cc(C(=O)NCc2ccc(Cl)cc2)c(=O)c2cc(CCCO)sc21` [Example 28, N-(4-Chlorobenzyl)-2-(3-hydroxypropyl)-7-isopropyl-4-oxo4,7-dihydrothieno[2,3-b]pyridine-5-carboxamide] gave a melting point of 84 to 92 °C. The 50% inhibitory concentration (IC50) in data set [1] amounted to 2.4 µM.

`O=C(NCc1ccc(Cl)cc1)c1cnc2sccc2c1O` [Example 1, N-(4-Chlorobenzyl)-4-hydroxythieno[2,3-b]pyridine-5-carboxamide] gave a melting point of 238 to 240 °C. The IC50 in data set [1] was determined as 28.9 µM.

In turn, `CCn1cc(C(=O)NCc2ccc(Cl)cc2)c(=O)c2cc(C#CCO)sc21` [Example 14, N-(4-Chlorobenzyl)-7-ethyl-2-(3-hydroxy-1-propynyl)-4-oxo4,7-dihydrothieno[2,3-b]pyridine-5-carboxamide] returned a melting point of 217 to 219 °C. For the same compound, in data set [1], the IC50 turned out to be 1.8 µM.

As for `COCC#Cc1cc2c(O)c(C(=O)NCc3ccc(Cl)cc3)cnc2s1` [Example 6, N-(4-Chlorobenzyl)-4-hydroxy-2-(3-methoxy-1-propynyl)-thieno[2,3-b]pyridine-5-carboxamide], the melting point was 215 to 218 °C. For the same compound, the IC50 in data set [1] amounted to 5.8 µM.

`CCn1cc(C(=O)NCc2ccc(Cl)cc2)c(=O)c2cc(Br)sc21` [Example 11, 2-Bromo-N-(4-chlorobenzyl)-7-ethyl-4-oxo-4,7-dihydrothieno[2,3-b]pyridine-5-carboxamide] returned a melting point of 196 to 197 °C. The IC50 in data set [1] was 18.8 µM.

On to `O=C(NCc1ccc(Cl)cc1)c1cn(CC2CCCO2)c2sc(CN3CCOCC3)cc2c1=O` (centres unmarked) [Example 52], for which the melting point was in the range of 191 to 195 °C. For the same compound, in data set [1], the concentration for half-maximal inhibition (IC50) turned out to be 1.5 µM.

Regarding `Cn1cc(C(=O)NCc2ccc(Cl)cc2)c(=O)c2cc(CN3CCSCC3)sc21` [Example 38, N-(4-Chlorobenzyl)-7-methyl-4-oxo-2-(4-thiomorpholinyl-methyl)-4,7-dihydrothieno[2,3-b]pyridine-5-carboxamide], the melting point was 215 to 218 °C (dec.). In addition, the IC50 in data set [1] amounted to 2.6 µM.

Compound `CCN(CC)CCn1cc(C(=O)NCc2ccc(Cl)cc2)c(=O)c2cc(CCCO)sc21` [Example 22, N-(4-Chlorobenzyl)-7-[2-(diethylamino)ethyl]-2-(3-hydroxypropyl)4-oxo4,7-dihydrothieno[2,3-b]pyridine-5-carboxamide Hydrorhloride] came in with a melting point of 111 to 114 °C. The IC50 in data set [1] was 0.81 µM.

Compound `CCn1cc(C(=O)NCc2ccc(Cl)cc2)c(=O)c2cc(CCCO)sc21` [Example 16, N-(4-Chlorobenzyl)-7-ethyl-2-(3-hydroxypropyl)-4-oxo-4,7-dihydrothieno [2,3-b] pyfidine-5-carboxamide] had a melting point of 144 to 146 °C. For the same compound, the IC50 in data set [1] was found to be 0.67 µM.

Regarding `CCCn1cc(C(=O)NCc2ccc(Cl)cc2)c(=O)c2cc(CN3CCOCC3)sc21` [Example 43, N-(4-Chlorobenzyl)-2-(4-morpholinylmethyl)-4-oxo-7-propyl-4,7dihydrothieno[2,3-b]pyridine-5-carboxamide], the melting point was 174 to 176 °C. The IC50 in data set [1] stood at 1.9 µM.

The compound `CC(C)n1cc(C(=O)NCc2ccc(Cl)cc2)c(=O)c2cc(CN3CCOCC3)sc21` [Example 44, N-(4-Chlorobenzyl)-7-isopropyl-2-(4-morpholinylmethyl)-4-oxo-4,7-dihydrothieno[2,3-b]pyridine-5-carboxamide] displayed a melting point of 191 to 195 °C. Moreover, in data set [1], the IC50 worked out at 4.7 µM.

For `CCn1cc(C(=O)NCc2ccc(Cl)cc2)c(=O)c2cc(CCCCO)sc21` [Example 20, N-(4-Chlorobenzyl)-7-ethyl-2-(4-hydroxybutyl)4-oxo-4,7-dihydrothieno[2,3-b]pyridine-5-carboxamide], the melting point lay in the range of 136 to 139 °C. For the same compound, in data set [1], the IC50 amounted to 0.18 µM.

Take `COC(=O)c1cc2c(O)c(C(=O)NCc3ccc(Cl)cc3)cnc2s1` [Example 33, Methyl 5-{[(4-Chlorobenzyl)amino]carbonyl}-4-hydroxythieno[2,3-b]pyridine-2-carboxylate]: the melting point fell in the range of 238 to 240 °C. Besides, the IC50 in data set [1] was 22.4 µM.

Source of the values: US6495683B2, “4-oxo-4,7-dihydro-thieno[2,3-b]pyridine-5-carboxamides as antiviral agents” (Pharmacia and Upjohn Company, priority 1999, dated 2002).
